Assay results as given in PubChem BioAssay (NCI).
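How tested: cells in 96-well plates exposed to compound for 48 hours at five concentrations. At the GI50, growth is halved. Definition used: TGI = concentration required for complete inhibition of growth.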 Activity calls are given as the source filed them. Cut-off read from the data, not from the text of the source: active = GI50 below about 0.43 µM; inactive = the rest.

Tests used:
Experiment in all cases: NCI tumour cell line growth inhibition, 48 h
RPMI-8226 leukemia = system: RPMI-8226 leukemia
RXF 393 renal = system: RXF 393 renal
SW-620 colon = system: SW-620 colon
UO-31 renal = system: UO-31 renal
OVCAR-3 ovarian = system: OVCAR-3 ovarian
IGROV1 ovarian = system: IGROV1 ovarian
HCC-2998 colon = system: HCC-2998 colon
K-562 leukemia = system: K-562 leukemia
SNB-19 CNS = system: SNB-19 CNS
HCT-116 colon = system: HCT-116 colon
P388 leukemia = system: P388 leukemia
MOLT-4 leukemia = system: MOLT-4 leukemia
OVCAR-4 ovarian = system: OVCAR-4 ovarian
SN12K1 renal = system: SN12K1 renal
HT29 colon = system: HT29 colon
NCI-H522 lung = system: NCI-H522 lung
KM20L2 colon = system: KM20L2 colon
MCF7 breast = system: MCF7 breast
XF 498 CNS = system: XF 498 CNS
DLD-1 colon = system: DLD-1 colon
A498 renal = system: A498 renal
NCI-H23 lung = system: NCI-H23 lung
CCRF-CEM leukemia = system: CCRF-CEM leukemia
SK-OV-3 ovarian = system: SK-OV-3 ovarian
P388/ADR leukemia = system: P388/ADR leukemia
HOP-62 NSCLC = system: HOP-62 NSCLC
DMS 114 small cell lung = system: DMS 114 small cell lung
SK-MEL-5 melanoma = system: SK-MEL-5 melanoma
LOX IMVI melanoma = system: LOX IMVI melanoma
UACC-62 melanoma = system: UACC-62 melanoma
MALME-3M melanoma = system: MALME-3M melanoma
DMS 273 small cell lung = system: DMS 273 small cell lung
KM12 colon = system: KM12 colon
SK-MEL-2 melanoma = system: SK-MEL-2 melanoma
EKVX NSCLC = system: EKVX NSCLC
OVCAR-5 ovarian = system: OVCAR-5 ovarian
NCI-H226 lung = system: NCI-H226 lung
SF-295 CNS = system: SF-295 CNS
NCI-H460 lung = system: NCI-H460 lung
HL-60(TB) leukemia = system: HL-60(TB) leukemia
NCI/ADR-RES ovarian = system: NCI/ADR-RES ovarian
U251 CNS = system: U251 CNS
HOP-92 NSCLC = system: HOP-92 NSCLC
SNB-75 CNS = system: SNB-75 CNS
HOP-18 NSCLC = system: HOP-18 NSCLC
A549 NSCLC = system: A549 NSCLC
SF-539 CNS = system: SF-539 CNS
OVCAR-8 ovarian = system: OVCAR-8 ovarian
SN12C renal = system: SN12C renal
CAKI-1 renal = system: CAKI-1 renal
M19-MEL melanoma = system: M19-MEL melanoma
SK-MEL-28 melanoma = system: SK-MEL-28 melanoma
UACC-257 melanoma = system: UACC-257 melanoma
SF-268 CNS = system: SF-268 CNS
HCT-15 colon = system: HCT-15 colon
COLO 205 colon = system: COLO 205 colon
SNB-78 CNS = system: SNB-78 CNS

Molecule `C=Cc1ccccc1` (tested in a mixture with another compound) has a GI50 (RPMI-8226 leukemia) of over 75 µg/mL, a TGI (RPMI-8226 leukemia) of over 75 µg/mL and a GI50 (RXF 393 renal) of over 75 µg/mL. For the same molecule, the TGI (RXF 393 renal) was over 75 µg/mL, the GI50 (SW-620 colon) was over 75 µg/mL and the TGI (SW-620 colon) was over 75 µg/mL. For the same molecule, the GI50 (UO-31 renal) was over 75 µg/mL, the TGI (UO-31 renal) was over 75 µg/mL and the GI50 (OVCAR-3 ovarian) was over 75 µg/mL. It also gave a TGI (OVCAR-3 ovarian) of over 75 µg/mL, a GI50 (IGROV1 ovarian) of over 75 µg/mL and a TGI (IGROV1 ovarian) of over 75 µg/mL. For the same molecule, the GI50 (HCC-2998 colon) was over 75 µg/mL, the TGI (HCC-2998 colon) was over 75 µg/mL and the GI50 (K-562 leukemia) was over 75 µg/mL. The TGI (K-562 leukemia) was over 75 µg/mL, the GI50 (SNB-19 CNS) was over 75 µg/mL and the TGI (SNB-19 CNS) was over 75 µg/mL. For the same molecule, the GI50 (HCT-116 colon) was over 75 µg/mL, the TGI (HCT-116 colon) was over 75 µg/mL and the GI50 (P388 leukemia) was over 75 µg/mL. The TGI (P388 leukemia) was over 75 µg/mL, the GI50 (MOLT-4 leukemia) was over 75 µg/mL and the TGI (MOLT-4 leukemia) was over 75 µg/mL. For the same molecule, the GI50 (OVCAR-4 ovarian) was over 75 µg/mL, the TGI (OVCAR-4 ovarian) was over 75 µg/mL and the GI50 (SN12K1 renal) was over 75 µg/mL. It also gave a TGI (SN12K1 renal) of over 75 µg/mL, a GI50 (HT29 colon) of over 75 µg/mL and a TGI (HT29 colon) of over 75 µg/mL. For the same molecule, the GI50 (NCI-H522 lung) was over 75 µg/mL, the TGI (NCI-H522 lung) was over 75 µg/mL and the outcome (KM20L2 colon) was “inactive”. For the same molecule, the GI50 (MCF7 breast) was over 75 µg/mL, the TGI (MCF7 breast) was over 75 µg/mL and the outcome (XF 498 CNS) was “inactive”. It also gave a GI50 (DLD-1 colon) of over 75 µg/mL, a TGI (DLD-1 colon) of over 75 µg/mL and a GI50 (A498 renal) of over 75 µg/mL. The TGI (A498 renal) was over 75 µg/mL, the GI50 (NCI-H23 lung) was over 75 µg/mL and the TGI (NCI-H23 lung) was over 75 µg/mL. It also gave a GI50 (CCRF-CEM leukemia) of over 75 µg/mL, a TGI (CCRF-CEM leukemia) of over 75 µg/mL and a GI50 (SK-OV-3 ovarian) of over 75 µg/mL. It also gave a TGI (SK-OV-3 ovarian) of over 75 µg/mL, a GI50 (P388/ADR leukemia) of over 75 µg/mL and a TGI (P388/ADR leukemia) of over 75 µg/mL. The GI50 (HOP-62 NSCLC) was 48.4 µg/mL, the TGI (HOP-62 NSCLC) was over 75 µg/mL and the GI50 (DMS 114 small cell lung) was over 75 µg/mL. It also gave a TGI (DMS 114 small cell lung) of over 75 µg/mL, a GI50 (SK-MEL-5 melanoma) of over 75 µg/mL and a TGI (SK-MEL-5 melanoma) of over 75 µg/mL. It also gave a GI50 (LOX IMVI melanoma) of over 75 µg/mL, a TGI (LOX IMVI melanoma) of over 75 µg/mL and a GI50 (UACC-62 melanoma) of over 75 µg/mL. It also gave a TGI (UACC-62 melanoma) of over 75 µg/mL, a GI50 (MALME-3M melanoma) of over 75 µg/mL and a TGI (MALME-3M melanoma) of over 75 µg/mL. It also gave a GI50 (DMS 273 small cell lung) of over 75 µg/mL, a TGI (DMS 273 small cell lung) of over 75 µg/mL and a GI50 (KM12 colon) of over 75 µg/mL. It also gave a TGI (KM12 colon) of over 75 µg/mL, a GI50 (SK-MEL-2 melanoma) of over 75 µg/mL and a TGI (SK-MEL-2 melanoma) of over 75 µg/mL. The GI50 (EKVX NSCLC) was over 75 µg/mL, the TGI (EKVX NSCLC) was over 75 µg/mL and the GI50 (OVCAR-5 ovarian) was over 75 µg/mL. It also gave a TGI (OVCAR-5 ovarian) of over 75 µg/mL, a GI50 (NCI-H226 lung) of over 75 µg/mL and a TGI (NCI-H226 lung) of over 75 µg/mL. The GI50 (SF-295 CNS) was over 75 µg/mL, the TGI (SF-295 CNS) was over 75 µg/mL and the GI50 (NCI-H460 lung) was over 75 µg/mL. It also gave a TGI (NCI-H460 lung) of over 75 µg/mL, a GI50 (HL-60(TB) leukemia) of over 75 µg/mL and a TGI (HL-60(TB) leukemia) of over 75 µg/mL. It also gave a GI50 (NCI/ADR-RES ovarian) of over 75 µg/mL, a TGI (NCI/ADR-RES ovarian) of over 75 µg/mL and a GI50 (U251 CNS) of over 75 µg/mL. The TGI (U251 CNS) was over 75 µg/mL, the GI50 (HOP-92 NSCLC) was 59.5 µg/mL and the TGI (HOP-92 NSCLC) was over 75 µg/mL. The GI50 (SNB-75 CNS) was 28.3 µg/mL, the TGI (SNB-75 CNS) was over 75 µg/mL and the outcome (HOP-18 NSCLC) was “inactive”. For the same molecule, the GI50 (A549 NSCLC) was over 75 µg/mL, the TGI (A549 NSCLC) was over 75 µg/mL and the GI50 (SF-539 CNS) was over 75 µg/mL. The TGI (SF-539 CNS) was over 75 µg/mL, the GI50 (OVCAR-8 ovarian) was 63.3 µg/mL and the TGI (OVCAR-8 ovarian) was over 75 µg/mL. For the same molecule, the GI50 (SN12C renal) was over 75 µg/mL, the TGI (SN12C renal) was over 75 µg/mL and the GI50 (CAKI-1 renal) was over 75 µg/mL. It also gave a TGI (CAKI-1 renal) of over 75 µg/mL, a GI50 (M19-MEL melanoma) of over 75 µg/mL and a TGI (M19-MEL melanoma) of over 75 µg/mL. The GI50 (SK-MEL-28 melanoma) was over 75 µg/mL, the TGI (SK-MEL-28 melanoma) was over 75 µg/mL and the GI50 (UACC-257 melanoma) was over 75 µg/mL. It also gave a TGI (UACC-257 melanoma) of over 75 µg/mL, a GI50 (SF-268 CNS) of over 75 µg/mL and a TGI (SF-268 CNS) of over 75 µg/mL. For the same molecule, the GI50 (HCT-15 colon) was over 75 µg/mL and the TGI (HCT-15 colon) was over 75 µg/mL.
`CN(C)CCNC(=O)c1ccc(Cl)c2ccc(-c3ccccc3)nc12` gave a TGI (RPMI-8226 leukemia) of 7.83 µM, a TGI (RXF 393 renal) of 19 µM and a TGI (SW-620 colon) of 14.2 µM. For the same molecule, the TGI (UO-31 renal) was 5.21 µM, the TGI (OVCAR-3 ovarian) was 19.4 µM and the TGI (IGROV1 ovarian) was 14.1 µM. It also gave a TGI (HCC-2998 colon) of 16.6 µM, a TGI (K-562 leukemia) of 6.15 µM and a TGI (SNB-19 CNS) of 17.1 µM. The TGI (HCT-116 colon) was 11.3 µM, the TGI (COLO 205 colon) was 4.85 µM and the TGI (MOLT-4 leukemia) was 5.72 µM. The TGI (OVCAR-4 ovarian) was 14 µM, the TGI (SN12K1 renal) was 9.69 µM and the TGI (HT29 colon) was 11.9 µM. It also gave a TGI (NCI-H522 lung) of 14.9 µM, a TGI (KM20L2 colon) of 12.9 µM and a TGI (MCF7 breast) of 16.8 µM. The TGI (XF 498 CNS) was 11 µM, the TGI (DLD-1 colon) was 12.7 µM and the TGI (A498 renal) was 12.8 µM. It also gave a TGI (NCI-H23 lung) of 16.6 µM, a TGI (CCRF-CEM leukemia) of 10.8 µM and a TGI (SK-OV-3 ovarian) of 17.4 µM. For the same molecule, the TGI (P388/ADR leukemia) was 5.17 µM, the TGI (HOP-62 NSCLC) was 11 µM and the TGI (SK-MEL-5 melanoma) was 4.82 µM. It also gave a TGI (SNB-78 CNS) of 20.5 µM, a TGI (UACC-62 melanoma) of 7.83 µM and a TGI (MALME-3M melanoma) of 10.6 µM. For the same molecule, the TGI (DMS 273 small cell lung) was 10.9 µM, the TGI (KM12 colon) was 24.2 µM and the TGI (SK-MEL-2 melanoma) was 20.1 µM. It also gave a TGI (OVCAR-5 ovarian) of 13.3 µM, a TGI (NCI-H226 lung) of 7.3 µM and a TGI (SF-295 CNS) of 16.5 µM. For the same molecule, the TGI (NCI-H460 lung) was 8.04 µM, the TGI (HL-60(TB) leukemia) was 7.65 µM and the TGI (NCI/ADR-RES ovarian) was 12.1 µM. The TGI (U251 CNS) was 12.7 µM, the TGI (HOP-92 NSCLC) was 7.52 µM and the TGI (SNB-75 CNS) was 12.3 µM. For the same molecule, the TGI (HOP-18 NSCLC) was 13.5 µM, the TGI (A549 NSCLC) was 13 µM and the TGI (SF-539 CNS) was 12.8 µM. It also gave a TGI (OVCAR-8 ovarian) of 12.3 µM, a TGI (SN12C renal) of 15.5 µM and a TGI (CAKI-1 renal) of 12.9 µM. It also gave a TGI (M19-MEL melanoma) of 13.4 µM, a TGI (SK-MEL-28 melanoma) of 14.6 µM and a TGI (UACC-257 melanoma) of 14.2 µM. It also gave a TGI (SF-268 CNS) of 17.5 µM and a TGI (HCT-15 colon) of 14.5 µM.
